Measurements from patent publication US8703744B2, “Cholesterol level lowering liposomes” (priority 2009, dated 2014).

Tested on: Huh7.5 cells
Assay: Uptake of rh-PE-labeled 22:6 ER liposomes into Huh7.5 cells in the presence of drugs that up- and down-regulate LDLr expression
Format: cell-based, human
Conditions: 10 μM, 24 h pre-treatment, then 50 μM rhodamine-labeled 22:6 ER liposomes for 24 h
Procedure: Liposomes were prepared as described in US patent publication no. 20090252785 and included 1% (total moles) of rh-PE for monitoring their uptake in cells. JC-1-infected (MOI=0.5) or uninfected Huh7.5 cells were seeded in 6 well plates at a density of 3×10^5 cell/well in 2 ml of complete DMEM/10% FCS medium. Cells were either pre-treated or not with 1 μM and 10 μM squalestatin (SQ, Sigma) or 25-hydroxycholesterol (25-HC, Sigma) for 24 h in serum-free complete DMEM. Following the 24 h pre-incubation, rh-labeled liposomes were added to a final lipid concentration of 50 μM, and left to incubate for a further 24 h. Following incubation times, cells were washed twice in 1×PBS, detached, counted, and resuspended in 200 μl 1×PBS/1% Triton® X-100 before being transferred to a 96 well plate to read in a spectrofluorometer at λex=550 nm, Xem=590 nm.
22:6 ER liposomes (final lipid concentration of 50 μM), labeled with 1% rh-PE in the lipid bilayer, were then added to cells and left to incubate a further 24 h. Cells were then harvested, counted, and rh-PE fluorescence was measured at λex=550 nm, Xem=590 nm. All data represent the mean and SD of triplicates from three independent experiments. Data are presented in relation to the untreated control (100%), and significant differences from this value are denoted with * (P<0.05) or ** (P<0.001).

SMILES | decrease in liposome uptake [%] | liposome uptake, in relation to the untreated control (100%) [%]
C[C@H](CCCC(C)(C)O)[C@H]1CC[C@H]2[C@@H]3CC=C4C[C@@H](O)CC[C@]4(C)[C@H]3CC[C@]12C [25-HC, 25-hydroxycholesterol] | 69 | 
C=C(CC[C@]12O[C@H](C(=O)O)[C@@](O)(C(=O)O)[C@](C(=O)O)(O1)[C@H](OC(=O)/C=C/[C@@H](C)C[C@@H](C)CC)[C@H]2O)[C@@H](OC(C)=O)[C@H](C)Cc1ccccc1 [SQ, squalestatin] |  | 117
